Test results published in BigSolDB 2.1.

COc1c(C)c2c(c(O)c1C/C=C(\C)CCC(=O)OCCN1CCOCC1)C(=O)OC2
solubility (mole fraction)
Settings | 278.15 K | 283.15 K | 288.15 K | 293.15 K | 298.15 K | 303.15 K | 308.15 K | 313.15 K | 318.15 K
in DMSO | – | – | – | 0.0166 | 0.0214 | 0.0263 | 0.0322 | 0.0389 | 0.046
in ethanol | 0.00352 | 0.00394 | 0.00449 | 0.00511 | 0.00581 | 0.00659 | 0.00749 | 0.00847 | 0.0095
in isopropanol | 0.00538 | 0.00592 | 0.00664 | 0.00732 | 0.00821 | 0.0091 | 0.00998 | 0.011 | 0.0121
in propylene glycol | 0.000349 | 0.000486 | 0.000633 | 0.00081 | 0.001 | 0.00122 | 0.00145 | 0.00172 | 0.00199
in water | 2.62e-07 | 4.16e-07 | 6.62e-07 | 1.05e-06 | 1.55e-06 | 2.12e-06 | 2.84e-06 | 3.68e-06 | 4.51e-06
